Consider 42 molecules from US20110166132A1, “Gamma Secretase Modulators” (Amgen Inc., priority 2007, published 2011).

Broadly, the IC50 is the midpoint of a concentration-inhibition curve. A lower IC50 goes with greater potency in that assay.

Some results are limits rather than exact numbers.

The target of the assay is T1, gamma secretase (Homo sapiens, UniProt P49768).
T1 construct: HEK293 cells stably expressing full length Amyloid Precursor Protein (APP); endogenous in cells; host or cells: HEK 293 cells stably expressing full length APP
In words: GSM cell-based assay: Aβ 42 inhibition or reduction in HEK 293 cells over-expressing APP (sandwich ELISA). Conditions: approximate IC50; HEK293 cells stably expressing full length APP, 24 hours incubation, 10-point dose response starting at 10 μM. The text has this:
GSM cell-based assays were designed to measure the modulation of Aβ 42 from HEK 293 cells over-expressing APP.
Three simultaneous cell-based assays, namely Aβ 42 inhibition or reduction, Aβ 40 inhibition or reduction and a measurement of cell viability of the cells from which the Aβ 42/40 readout was obtained, together gave an interpretation of gamma secretase modulation (GSM). The assays measure Aβ 42 and Ab 40 from conditioned medium of test compound treated HEK 293 cells.
HEK293 cells stably expressing full length Amyloid Precursor Protein (APP) were plated at a density of 100K cells/well in 96 well plates (Costar). The cells were cultivated for 6 hours at 37° C. and 5% CO2 in DMEM supplemented with 10% FBS. The test compounds were then added to cells in 10-point dose response concentrations with the starting concentration being 10 μM. The compounds were diluted from stock solutions in DMSO and the final DMSO concentration of the test compounds on cells was 0.1%. After 24 hours of incubation with the test compounds the supernatant conditioned media was collected and the Aβ 42, Aβ 40 levels were determined using a sandwich ELISA. A cell viability test (CellTiter-Blue Cell Viability assay, Promega) on the cells from which the conditioned medium was harvested for Aβ 42 or Aβ 40 readouts gave an indication of cell survivability as a possible reason for false positive Aβ 42 or 40 reduction or inhibition readout. The IC50 of the compound (for either Aβ 42 or Aβ 40) was calculated from the percent of control or percent inhibition of Aβ 42 or Aβ 40 as a function of the concentration of the test compound.
The sandwich ELISA to detect Aβ 42 or Aβ 40 was performed in 96 well microtiter plates, which were pre-treated with goat anti-rabbit IgG (Pierce). The capture and detecting antibody pair that were used to detect Aβ 42 and Aβ 40 from cell supernatants were rabbit monoclonal Antibody 42 (RabMAb 42) and affinity purified polyclonal Antibody 40 pAB40 (Biosource) as capture antibodies and biotinylated 6E10 (Signet Labs Inc.) as detection antibody. The optimal concentration for RabMAb 42 was 1 μg/ml in Superblock/TBS (Pierce) that was supplemented with 0.05% Tween 20 (Sigma). The optimal concentration for the pAb40 antibody was 3 μg/ml in Superblock/TBS (Pierce) that was supplemented with 0.05% Tween 20 (Sigma). Optimal concentration for the detection antibody 6E10-biotinylated was 0.5 μg/ml in Superblock/TBS (Pierce) that had been supplemented with 2% normal goat serum and 2% normal mouse serum.
Cellular supernatants were incubated with the capture antibody for 16-20 hours at 4° C., followed by 3 wash steps in TBS-tween (0.05%). The detecting antibody incubation was for 3 hours at 4° C., again followed by the wash steps as described previously. The final readout of the ELISA is Time-Resolved Fluorescence (counts per minute) using Delfia reagents Streptavidin-Europium and Enhancement solutions (Perkin Elmer) and the EnVision Multilabel plate reader (Perkin Elmer).
In general terms: An ELISA detects its analyte on a solid surface through an enzyme-linked reagent.
In turn, `CCC(C(=O)Nc1ccc(-c2ccnc(C)c2)cc1)c1cccc(C)c1` (stereo not drawn) [Cpd 200, 2-(3-methylphenyl)-N-(4-(2-methyl-4-pyridinyl)phenyl)butanamide] yielded an IC50 of 1050 nM. That is a single-digit micromolar value.

Turning to `Cc1cc(-c2ccc(NC(=O)C(CC(C)C)c3cccc(-c4ccc(N5CCN(C(=O)OC(C)(C)C)CC5)cc4)c3)cc2)ccn1` (stereo not drawn) [Cpd 228, tert-butyl 4-(3′-(3-methyl-1-((4-(2-methyl-4-pyridinyl)phenyl)carbamoyl)butyl)-4-biphenylyl)-1-piperazinecarboxylate], the 50% inhibitory concentration (IC50) was found to be 135 nM. Compared with the last molecule, the IC50 is about 7.8-fold lower.

Take `Cc1cc(-c2ccc(NC(=O)c3cccc(C#N)c3)cc2)ccn1` [Cpd 275]: the half-maximal inhibitory concentration (IC50) is > 10000 nM.

As for `Cc1cc(-c2ccc(NC(=O)c3cccc(C(F)(F)F)c3)cc2)ccn1` [Cpd 279], the IC50 was > 10000 nM.

As for `Cc1cc(-c2ccc(NC(=O)c3ccc(-c4ccccc4)cc3)cc2)ccn1` [Cpd 280], the IC50 was > 10000 nM.

For `COc1cc(C(=O)Nc2ccc(-c3ccnc(C)c3)cc2)ccc1C` [Cpd 282], the IC50 was > 10000 nM.

Take `Cc1cc(-c2ccc(NC(=O)c3cccc4c3oc3ccccc34)cc2)ccn1` [Cpd 286]: half-maximal inhibition (IC50) was put at 6710 nM.

Consider `Cc1cc(-c2ccc(NC(=O)C3(c4ccccc4F)CC3)cc2)ccn1` [Cpd 288], for which the midpoint of inhibition, the IC50, lay at 1770 nM.

Take `Cc1cc(-c2ccc(NC(=O)[C@@H](C)c3cc(C(F)(F)F)cc(C(F)(F)F)c3)cc2)ccn1` [Cpd 290, (2S)-2-(3,5-bis(trifluoromethyl)phenyl)-N-(4-(2-methyl-4-pyridinyl)phenyl)-propanamide]: the IC50 was > 10000 nM.

Take `Cc1cc(-c2ccc(NC(=O)c3cn4cc(Cl)ccc4n3)cc2)ccn1` [Cpd 300]: the 50% inhibitory concentration (IC50) is > 10000 nM.

Molecule `Cc1cc(-c2ccc(NC(=O)c3cc4ccccc4n3C)cc2)ccn1` [Cpd 305] showed a 50% inhibitory concentration (IC50) of 5540 nM.

For `Cc1cc(-c2ccc(NC(=O)C3CC(=O)N(c4ccc(Cl)cc4)C3)cc2)ccn1` (stereo not drawn) [Cpd 308], the half-inhibitory concentration (IC50) was > 10000 nM.

The molecule `Cc1cc(-c2ccc(NC(=O)C3(c4ccc(Cl)cc4)CCC3)cc2)ccn1` [Cpd 310] registered a 50% inhibitory concentration (IC50) of 573 nM. This lies in the sub-micromolar range.

As to `Cc1cc(-c2ccc(NC(=O)C3CCN(Cc4ccccc4)CC3)cc2)ccn1` [Cpd 312], the IC50 was > 10000 nM.

As to `Cc1cc(-c2ccc(NC(=O)c3cc4ccc(F)cc4s3)cc2)ccn1` [Cpd 314], the half-maximal inhibitory concentration (IC50) is > 10000 nM.

On to `Cc1cc(-c2ccc(NC(=O)c3cn4cc(Br)ccc4n3)cc2)ccn1` [Cpd 315], for which inhibition was half-maximal at 2160 nM (IC50).

For the molecule `Cc1cc(-c2ccc(NC(=O)Cc3cccc(C#N)c3)cc2)ccn1` [Cpd 321, 2-(3-cyanophenyl)-N-(4-(2-methyl-4-pyridinyl)phenyl)acetamide], the IC50 is > 10000 nM.

For the molecule `Cc1cc(-c2ccc(NC(=O)C3CCCc4ccccc43)cc2)ccn1` (stereo not drawn) [Cpd 322], the concentration for half-maximal inhibition (IC50) is 2690 nM.

For `Cc1cc(-c2ccc(NC(=O)C3(c4ccc(Cl)cc4Cl)CC3)cc2)ccn1` [Cpd 332], the IC50 came out at 1170 nM.

On to `Cc1cc(-c2ccc(NC(=O)C(C)(C)c3cc(C(F)(F)F)cc(C(F)(F)F)c3)cc2)ccn1` [Cpd 336], for which the IC50 is > 10000 nM.

In the case of `Cc1cccc(C(C(=O)Nc2ccc(-c3ccnc(C)c3)cc2)C(C)C)c1` (stereo not drawn) [Cpd 338, 3-methyl-2-(3-methylphenyl)-N-(4-(2-methyl-4-pyridinyl)phenyl)butanamide], inhibition was half-maximal at 1350 nM (IC50). This counts as single-digit micromolar.

`CC[C@@H](C(=O)Nc1ccc(-c2ccnc(C)c2)cc1)c1ccccc1` [Cpd 344, (2R)-N-(4-(2-methyl-4-pyridinyl)phenyl)-2-phenylbutanamide]: the IC50 is > 10000 nM.

In turn, `CC[C@H](C(=O)Nc1ccc(-c2ccnc(C)c2)cc1)c1ccccc1` [Cpd 345, (2S)-N-(4-(2-methyl-4-pyridinyl)phenyl)-2-phenylbutanamide] came in with an IC50 of 1870 nM.

Take `Cc1cc(-c2ccc(NC(=O)Cc3ccc(F)c(C(F)(F)F)c3)cc2)ccn1` [Cpd 351, 2-(4-fluoro-3-(trifluoromethyl)phenyl)-N-(4-(2-methyl-4-pyridinyl)phenyl)acetamide]: half-maximal inhibition (IC50) was put at 2390 nM.

Molecule `CCCC(C(=O)Nc1ccc(-c2ccnc(C)c2)cc1)c1ccccc1` (stereo not drawn) [Cpd 368, N-(4-(2-methyl-4-pyridinyl)phenyl)-2-phenylpentanamide] showed a concentration for half-maximal inhibition (IC50) of 2650 nM. The IC50 values of the last two molecules are within 1.5-fold of each other.

Turning to `Cc1cc(-c2ccc(NC(=O)c3cccc(-c4ccccc4)c3)cc2)ccn1` [Cpd 386], the IC50 was 874 nM.

Turning to `Cc1cc(-c2ccc(NC(=O)C(C)n3ccc4ccccc43)cc2)ccn1` (stereo not drawn) [Cpd 414, 2-(1H-indol-1-yl)-N-(4-(2-methyl-4-pyridinyl)phenyl)propanamide], the IC50 was found to be 1020 nM. The IC50 values of the last two molecules are within 1.5-fold of each other.

Regarding `Cc1cc(-c2ccc(NC(=O)C(C)c3ccc(N)cc3)cc2)ccn1` (stereo not drawn) [Cpd 419, 2-(4-aminophenyl)-N-(4-(2-methyl-4-pyridinyl)phenyl)propanamide], the IC50 is > 10000 nM.

Turning to `Cc1cc(-c2ccc(NC(=O)C(C)c3cccc(C4=CCNCC4)c3)cc2)ccn1` (stereo not drawn) [Cpd 425, N-(4-(2-methyl-4-pyridinyl)phenyl)-2-(3-(1,2,3,6-tetrahydro-4-pyridinyl)phenyl)-propanamide], the 50% inhibitory concentration (IC50) was > 10000 nM.

As to `Cc1cc(-c2ccc(NC(=O)C(C)c3cc(N4CCOCC4)cc(C(F)(F)F)c3)cc2)ccn1` (stereo not drawn) [Cpd 441, N-(4-(2-methyl-4-pyridinyl)phenyl)-2-(3-(4-morpholinyl)-5-(trifluoromethyl)phenyl)-propanamide], inhibition was half-maximal at 1840 nM (IC50).

For the molecule `Cc1cc(-c2ccc(NC(=O)C(C)c3cccc(-c4ccc(S(C)(=O)=O)cc4)c3)cc2)ccn1` (stereo not drawn) [Cpd 442, N-(4-(2-methyl-4-pyridinyl)phenyl)-2-(4′-(methylsulfonyl)-3-biphenylyl)propanamide], the IC50 was determined as 628 nM.

As to `Cc1cc(-c2ccc(NC(=O)C(C)c3ccc(NC(C)C)cc3)cc2)ccn1` (stereo not drawn) [Cpd 443], half-maximal inhibition (IC50) was put at 302 nM. Compared with the last molecule, the IC50 is about 2.1-fold lower.

`Cc1cc(-c2ccc(NC(=O)C(C)c3cccc(-c4ccc(OC(F)(F)F)cc4)c3)cc2)ccn1` (stereo not drawn) [Cpd 453, N-(4-(2-methyl-4-pyridinyl)phenyl)-2-(4′-(trifluoromethoxy)-3-biphenylyl)-propanamide] registered an IC50 of 1420 nM.

Turning to `COc1cc(NC(=O)C(C)c2cc(F)cc(C(F)(F)F)c2)ccc1-c1ccnc(C)c1` (stereo not drawn) [Cpd 454, 2-(3-fluoro-5-(trifluoromethyl)phenyl)-N-(3-methoxy-4-(2-methyl-4-pyridinyl)-phenyl)propanamide], it took 806 nM to reach half-maximal inhibition (IC50).

`Cc1cc(-c2ccc(NC(=O)C(C)n3cc(-c4ccccc4)c(C)n3)cc2)ccn1` (stereo not drawn) [Cpd 455, 2-(3-methyl-4-phenyl-1H-pyrazol-1-yl)-N-(4-(2-methyl-4-pyridinyl)phenyl)-propanamide] had an IC50 of 908 nM.

For the molecule `Cc1cc(-c2ccc(NC(=O)C(C)c3cccc(Br)c3)cc2C#N)ccn1` (stereo not drawn) [Cpd 460, 2-(3-bromophenyl)-N-(3-cyano-4-(2-methyl-4-pyridinyl)phenyl)propanamide], half-maximal inhibition (IC50) was put at 5760 nM.

In turn, `COc1cc(NC(=O)[C@H](C)c2cccc(Br)c2)ccc1-c1ccnc(C)c1` [Cpd 461, (2R)-2-(3-bromophenyl)-N-(3-methoxy-4-(2-methyl-4-pyridinyl)phenyl)propanamide] showed an IC50 of 911 nM.

`Cc1cc(-c2ccc(NC(=O)C(C)c3ccc(N(C)C(C)C)cc3)cc2)ccn1` (stereo not drawn) [Cpd 481, 2-(4-(methyl(1-methylethyl)amino)phenyl)-N-(4-(2-methyl-4-pyridinyl)phenyl)-propanamide] yielded a 50% inhibitory concentration (IC50) of 2130 nM.

In the case of `Cc1cc(-c2ccc(NC(=O)C(C)c3ccc4c(c3)CCN4)cc2)ccn1` (stereo not drawn) [Cpd 497, 2-(2,3-dihydro-1H-indol-5-yl)-N-(4-(2-methyl-4-pyridinyl)phenyl)propanamide], the concentration for half-maximal inhibition (IC50) is > 10000 nM.

As to `COc1ncc(-c2cccc([C@@H](C)C(=O)Nc3ccc(-c4ccnc(C)c4)cc3)c2)cn1` [Cpd 502, (2R)-2-(3-(2-methoxy-5-pyrimidinyl)-phenyl)-N-(4-(2-methyl-4-pyridinyl)-phenyl)propanamide], the IC50 is > 10000 nM.

The molecule `CC(=O)N1CCN(c2ccc(-c3cccc([C@@H](C)C(=O)Nc4ccc(-c5ccnc(C)c5)cc4)c3)cc2)CC1` [Cpd 522] returned an IC50 of 320 nM.

In the case of `Cc1cc(-c2ccc(NC(=O)C(C)c3cccc(C4CC4)c3)cc2)ccn1` (stereo not drawn) [Cpd 524, 2-(3-cyclopropylphenyl)-N-(4-(2-methyl-4-pyridinyl)phenyl)propanamide], inhibition was half-maximal at 1200 nM (IC50).
